Assays:
Assay type in all cases: physicochemical
[1] = Heat-up/cool-down crystallisation screen of sorbate salt (Example 10, Experiments 5, 8); conditions: for Observations (t = 1 @ T = 20° C.): Tabernanthalog sorbate salt (Form A) crystallised from binary solvents, solvent A 3.0 vol plus solvent B, one pair per sample; for XRPD (centrifuged, wet): wet pellet
Experimental: The relevant solvent (0.225 ml, 3.0 vol) was added to the appropriate vial and the suspensions were stirred and warmed to temperature. If dissolution was not observed, further solvent was added until the solute dissolved, or aliquots of a secondary co-solvent were added to complete dissolution. Once dissolved, the solutions were left to cool down and stand undisturbed under sub-ambient conditions for several days. After crystallisation was judged complete, the products were isolated by centrifugation and the pellets were dried at 40° C. under reduced pressure. Products from the crystallisation (wet and dry) were initially analysed by XRPD (9-minute method), further analyses of certain products were performed by ^1H NMR, DSC and TGA, if the diffraction pattern indicated differences.

[2] = Examination of variability of fusion temperature of sorbate Form A (DSC)
Experimental: The factors that were assessed to explain the observed variability in fusion temperature found amongst Form A samples were sample loading, preferred orientation and particle size/homogeneity (Table 271). A weak relationship between sample loading and melt onset was observed, the remainder of the factors examined, appeared to be unrelated.
DSC data were collected from 25 to 220C at a scan rate of at 10° C. min^−1 (Table 292).

[3] = Heat-up/cool down (HUCD) crystallization of the monofumarate salt (Experiment Reference 11); conditions: for XRPD (oven dried): form of product from HUCD crystallization of tabernanthalog fumarate Sample Reference 1 (Pattern #1), solvents per sample as in E1; for Observations (t = 0 @ T = 20° C.): input tabernanthalog fumarate Sample Reference 1 (Pattern #1), Solvent A/B: 11-A acetone/water, 11-B acetonitrile/water, 11-C butanol/water, 11-D tBME/methanol, 11-E DCM/methanol, 11-F ethanol/water, 11-G methyl acetate/water/methanol, 11-H 2-propanol/water, 11-1 methanol, 11-J MEK/water, 11-K 2-MeTHF/methanol, 11-L THF/water, 11-M toluene/methanol, 11-N water, 11-O dioxane/water, 11-P CPME/methan
Experimental: Separate portions of the tabernanthalog monofumarate salt (Pattern #1, Sample Reference 1, ca 75 mg, 1.0 wt.) were charged to separate vessels. The appropriate solvents (750 μl, 10.0 vol, refer to Table 106) were charged to the relevant vessels and subsequent charges of the appropriate co-solvent were made to accomplish dissolution at reflux. The solutions were cooled to 18 to 23° C. and allowed to stand undisturbed, until crystallization was judged complete. After this time the products were isolated by centrifugation, washed with recycled maturation solvent, dried under reduced pressure at 40° C. and analyzed by XRPD for evidence of alternative crystalline forms.

[4] = Targeted solubility of Tabernanthalog (native) in common solvents (Example 8, Experiment 1)
Experimental: The solutions were observed after cooling to determine if crystallization occurred on standing at room temperature.
To portions of tabernanthalog (native) (50 mg, 1 wt), were added 5 vol aliquots of the relevant solvent (Table 198). Observations were made at 20° C., 40° C. and reflux and the mixtures were cooled to 20° C. Contingent upon these findings, an additional 5 vol aliquot of the relevant solvent was added and the process was repeated until 20 vol of solvent was added in total.

[5] = DVS 0 to 90 to 0% RH (mass equilibrated); conditions: batch 8-A4
[6] = Experiment 5, heat-up/cool-down crystallisation from binary solvents
[7] = DSC 25-220° C. at 10° C. min^−1, batches of sorbate salt Form A
[8] = DSC 25 to 220C at 10° C. min−1, tabernanthalog sorbate Form A samples
[9] = DSC melt endset, 25 to 220C at 10° C. min−1, tabernanthalog sorbate Form A samples
[10] = DSC melt peak, 25 to 220C at 10° C. min−1, tabernanthalog sorbate Form A samples

## C/C=C/C=C/C(=O)O.COc1ccc2c3c([nH]c2c1)CCN(C)CC3 [Experiment 5-Sample N]
[1]; Experiment 5
  Observations (t = 1 @ T = 20° C.): Partial
[1]; [6]
  XRPD (oven dried @ 40° C., 20 h): Form A
  XRPD (centrifuged, wet): Form A

## C/C=C/C=C/C(=O)O.COc1ccc2c3c([nH]c2c1)CCN(C)CC3 [Experiment 5-Sample O]
[1]; Experiment 5
  Observations (t = 1 @ T = 20° C.): Liquid
[1]; [6]
  XRPD (oven dried @ 40° C., 20 h): Form A
  XRPD (centrifuged, wet): Form A

## C/C=C/C=C/C(=O)O.COc1ccc2c3c([nH]c2c1)CCN(C)CC3 [Experiment 5-Sample P]
[1]; Experiment 5
  Observations (t = 1 @ T = 20° C.): Partial
[1]; [6]
  XRPD (oven dried @ 40° C., 20 h): Form A
  XRPD (centrifuged, wet): Form A

## C/C=C/C=C/C(=O)O.COc1ccc2c3c([nH]c2c1)CCN(C)CC3 [Experiment 5-Sample Q]
[1]; Experiment 5
  Observations (t = 1 @ T = 20° C.): Solid
[1]; [6]
  XRPD (oven dried @ 40° C., 20 h): Form A
  XRPD (centrifuged, wet): Pattern #1

## CC=CC=CC(=O)O.COc1ccc2c3c([nH]c2c1)CCN(C)CC3 [Experiment 5-Sample R]
[1]; Experiment 5
  Observations (t = 1 @ T = 20° C.): Liquid
[1]; [6]
  XRPD (oven dried @ 40° C., 20 h): Form A
  XRPD (centrifuged, wet): Pattern #4

## C/C=C/C=C/C(=O)O.COc1ccc2c3c([nH]c2c1)CCN(C)CC3 [Experiment 6-Sample C1]
[2]; [7]
  Endset: 151.0 °C
  melt enthalpy: −100.5 Jg^−1
  melt onset: 144.7 °C
  peak: 148.8 °C
[2]; [8]
  melt enthalpy: −100.48 Jg-1
  melt onset: 144.66 °C
[2]; [9]
  Endset: 151.02 °C
[2]; [10]
  peak: 148.83 °C

## C/C=C/C=C/C(=O)O.COc1ccc2c3c([nH]c2c1)CCN(C)CC3 [Experiment 6-Sample D1]
[2]; [7]
  Endset: 150.2 °C
  melt enthalpy: −105.7 Jg^−1
  melt onset: 144.0 °C
  peak: 148.0 °C
[2]; [8]
  melt enthalpy: −166.35 Jg-1
  melt onset: 144.03 °C
[2]; [9]
  Endset: 150.17 °C
[2]; [10]
  peak: 148.00 °C

## C/C=C/C=C/C(=O)O.COc1ccc2c3c([nH]c2c1)CCN(C)CC3 [Experiment 6-Sample E1]
[2]; [7]
  Endset: 151.6 °C
  melt enthalpy: −105.7 Jg^−1
  melt onset: 145.0 °C
  peak: 148.8 °C
[2]; [8]
  melt enthalpy: −105.68 Jg-1
  melt onset: 145.00 °C
[2]; [9]
  Endset: 151.59 °C
[2]; [10]
  peak: 148.83 °C

## C/C=C/C=C/C(=O)O.COc1ccc2c3c([nH]c2c1)CCN(C)CC3 [Experiment 7-Sample A neat]
[2]; [7]
  Endset: 148.5 °C
  melt enthalpy: −122.5 Jg^−1
  melt onset: 144.4 °C
  peak: 146.8 °C
[2]; [8]
  melt enthalpy: −122.47 Jg-1
  melt onset: 144.39 °C
[2]; [9]
  Endset: 148.53 °C
[2]; [10]
  peak: 146.83 °C

## CC=CC=CC(=O)O.COc1ccc2c3c([nH]c2c1)CCN(C)CC3 [Experiment 8-Sample A]
[1]; Experiment 8, repeat of HUCD crystallisations aiming at Pattern #1 (water) and Pattern #6 (heptane/ethyl formate)
  XRPD (centrifuged, wet): Pattern #1

## C/C=C/C=C/C(=O)O.COc1ccc2c3c([nH]c2c1)CCN(C)CC3 [Pattern A1270-20-V2]
[2]; [7]
  Endset: 152.0 °C
  melt enthalpy: −84.1 Jg^−1
  melt onset: 143.9 °C
  peak: 148.8 °C
[2]; [8]
  melt enthalpy: −84.09 Jg-1
  melt onset: 143.89 °C
[2]; [9]
  Endset: 151.95 °C
[2]; [10]
  peak: 148.83 °C

## COc1ccc2c3c([nH]c2c1)CCN(C)CC3.O=C(O)/C=C/C(=O)O [Sample 11-1]
[3]
  XRPD (oven dried): Pattern #6b
  Observations (t = 0 @ T = 20° C.): suspension

## COc1ccc2c3c([nH]c2c1)CCN(C)CC3.O=C(O)/C=C/C(=O)O [Sample 11-A]
[3]
  XRPD (oven dried): Pattern #6a
  Observations (t = 0 @ T = 20° C.): suspension

## COc1ccc2c3c([nH]c2c1)CCN(C)CC3.O=C(O)/C=C/C(=O)O [Sample 11-B]
[3]
  XRPD (oven dried): Pattern #6a
  Observations (t = 0 @ T = 20° C.): cloudy

## COc1ccc2c3c([nH]c2c1)CCN(C)CC3.O=C(O)/C=C/C(=O)O [Sample 11-C]
[3]
  XRPD (oven dried): Pattern #6a
  Observations (t = 0 @ T = 20° C.): suspension

## COc1ccc2c3c([nH]c2c1)CCN(C)CC3.O=C(O)/C=C/C(=O)O [Sample 11-D]
[3]
  XRPD (oven dried): Pattern #5
  Observations (t = 0 @ T = 20° C.): cloudy

## COc1ccc2c3c([nH]c2c1)CCN(C)CC3.O=C(O)/C=C/C(=O)O [Sample 11-E]
[3]
  XRPD (oven dried): Pattern #6b
  Observations (t = 0 @ T = 20° C.): suspension

## COc1ccc2c3c([nH]c2c1)CCN(C)CC3 [Tabernanthalog (native), 8-Methoxy-3-methyl-2,4,5,6-tetrahydro-1H-azepino[4,5-b]indole]
[4]; 2-Methyl THF, 5 vol
  Solid on cooling: Yes
  Solution at reflux: ✓
[4]; 2-Propanol, 5 vol
  Solid on cooling: Yes
  Solution at reflux: ✓
[4]; 19 common solvents
  solubility in common solvents at 20° C.: freely soluble in most common solvents investigated at 20° C., apart from tBME, heptane and water
[4]; 19 common solvents, various volumes
  solubility in common solvents at reflux: soluble in 16 solvents at reflux
[4]; Acetone, 5 vol
  Solid on cooling: Yes
  Solution at reflux: ✓
[4]; Acetonitrile, 10 vol
  Solid on cooling: Yes
  Solution at reflux: ✓
[4]; Chlorobenzene, 5 vol
  Solid on cooling: Yes
  Solution at reflux: ✓
[4]; Dichloromethane, 5 vol
  Solid on cooling: Yes
  Solution at reflux: ✓
[4]; Ethanol, 5 vol
  Solid on cooling: Yes
  Solution at reflux: ✓
[4]; Ethyl acetate, 10 vol
  Solid on cooling: Yes
  Solution at reflux: ✓
[4]; Ethyl formate, 10 vol
  Solid on cooling: Yes
  Solution at reflux: ✓
[4]; Isopropyl acetate, 15 vol
  Solid on cooling: Yes
  Solution at reflux: ✓
[4]; Methanol, 5 vol
  Solid on cooling: Yes
  Solution at reflux: ✓
[4]; Methyl acetate, 10 vol
  Solid on cooling: Yes
  Solution at reflux: ✓
[4]; Methylethyl ketone, 5 vol
  Solid on cooling: Yes
  Solution at reflux: ✓
[4]; Nitromethane, 5 vol
  Solid on cooling: Yes
  Solution at reflux: ✓
[4]; Tetrahydrofuran, 5 vol
  Solid on cooling: Yes
  Solution at reflux: ✓
[4]; Toluene, 15 vol
  Solid on cooling: Yes
  Solution at reflux: ✓

## COc1ccc2c3c([nH]c2c1)CCN(C)CC3 [fumarate]
[5]; desorption, 5.0% RH
  DVS 0 to 90 to 0% RH (dm/dt <0.002%): 0.1179%
[5]; desorption, 10.0% RH
  DVS 0 to 90 to 0% RH (dm/dt <0.002%): 0.1551%
[5]; desorption, 15.0% RH
  DVS 0 to 90 to 0% RH (dm/dt <0.002%): 0.1857%
[5]; desorption, 20.0% RH
  DVS 0 to 90 to 0% RH (dm/dt <0.002%): 0.2126%
[5]; desorption, 25.0% RH
  DVS 0 to 90 to 0% RH (dm/dt <0.002%): 0.2387%
[5]; desorption, 30.0% RH
  DVS 0 to 90 to 0% RH (dm/dt <0.002%): 0.2656%
[5]; desorption, 40.0% RH
  DVS 0 to 90 to 0% RH (dm/dt <0.002%): 0.3210%
[5]; desorption, 50.0% RH
  DVS 0 to 90 to 0% RH (dm/dt <0.002%): 0.3797%
[5]; desorption, 60.0% RH
  DVS 0 to 90 to 0% RH (dm/dt <0.002%): 0.4515%
[5]; desorption, 70.0% RH
  DVS 0 to 90 to 0% RH (dm/dt <0.002%): 0.5442%
[5]; desorption, 80.0% RH
  DVS 0 to 90 to 0% RH (dm/dt <0.002%): 0.6827%
[5]; desorption, 90.0% RH
  DVS 0 to 90 to 0% RH (dm/dt <0.002%): 0.9766%
[5]; sorption, 0.0% RH
  DVS 0 to 90 to 0% RH (dm/dt <0.002%): DVS 0 to 90 to 0% RH (dm/dt <0.002%): 0.0 (0.0004%), 5.0
[5]; sorption, 5.0% RH
  DVS 0 to 90 to 0% RH (dm/dt <0.002%): 0.0627%
[5]; sorption, 10.0% RH
  DVS 0 to 90 to 0% RH (dm/dt <0.002%): 0.0957%
[5]; sorption, 15.0% RH
  DVS 0 to 90 to 0% RH (dm/dt <0.002%): 0.1397%
[5]; sorption, 20.0% RH
  DVS 0 to 90 to 0% RH (dm/dt <0.002%): 0.1778%
[5]; sorption, 25.0% RH
  DVS 0 to 90 to 0% RH (dm/dt <0.002%): 0.2093%
[5]; sorption, 30.0% RH
  DVS 0 to 90 to 0% RH (dm/dt <0.002%): 0.2401%
[5]; sorption, 40.0% RH
  DVS 0 to 90 to 0% RH (dm/dt <0.002%): 0.3145%
[5]; sorption, 50.0% RH
  DVS 0 to 90 to 0% RH (dm/dt <0.002%): 0.4051%
[5]; sorption, 70.0% RH
  DVS 0 to 90 to 0% RH (dm/dt <0.002%): 0.5451%
[5]; sorption, 80.0% RH
  DVS 0 to 90 to 0% RH (dm/dt <0.002%): 0.6660%
[5]; sorption, 90.0% RH
  DVS 0 to 90 to 0% RH (dm/dt <0.002%): 0.9766%

Source: patent publication US20230257385A1, “SALT AND SOLID FORMS OF TABERNANTHALOG” (priority 2021, published 2023)
